Reference: the supplement of paper PMC10307832

How the values were obtained:
Test in all cases: relative viability (nuclei count vs DMSO), 5 days (fraction); higher = more cells survive
NCI-H1755 = test system: NCI-H1755
How it was run: (§1)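 After 5 days of treatment, lung cancer cells in 1536-well plates were fixed and stained in a single step (final 0.05% Triton X-100, 1% formaldehyde, 1 ug/ml Hoechst) and their nuclei counted on 4× images. Treatment had been applied by pin tool the day after seeding as one drug alone or as a fixed anchor-drug dose with five library-drug doses (not always all listed) in √10 steps. Relative viability is the nuclei count of treated wells divided by that of vehicle wells, and values are medians of duplicate plates.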

SK-LU-1 = test system: SK-LU-1
How it was run: as §1

PC-14 = test system: PC-14
How it was run: as §1

H3255 = test system: H3255
How it was run: as §1

HCC-15 = test system: HCC-15
How it was run: as §1

NCI-H1437 = test system: NCI-H1437
How it was run: as §1

NCI-H1915 = test system: NCI-H1915
How it was run: as §1

NCI-H2405 = test system: NCI-H2405
How it was run: as §1

NCI-H2023 = test system: NCI-H2023
How it was run: as §1

NCI-H460 = test system: NCI-H460
How it was run: as §1

UMC-11 = test system: UMC-11
How it was run: as §1

NCI-H3122 = test system: NCI-H3122
How it was run: as §1

A-427 = test system: A-427
How it was run: as §1

LXF-289 = test system: LXF-289
How it was run: as §1

HARA = test system: HARA
How it was run: as §1

NCI-H596 = test system: NCI-H596
How it was run: as §1

NCI-H2009 = test system: NCI-H2009
How it was run: as §1

PC-3 [JPC-3] = test system: PC-3 [JPC-3]
How it was run: as §1

NCI-H441 = test system: NCI-H441
How it was run: as §1

NCI-H650 = test system: NCI-H650
How it was run: as §1

NCI-H1975 = test system: NCI-H1975
How it was run: as §1

HCC-366 = test system: HCC-366
How it was run: as §1

SMILES: O=c1[nH]c2ccccc2n1C1CCN(CCCC(c2ccc(F)cc2)c2ccc(F)cc2)CC1 [Pimozide] + C[C@@H](Oc1cc(-c2cnn(C3CCNCC3)c2)cnc1N)c1c(Cl)ccc(F)c1Cl [Crizotinib] (partner 1 µM)
- relative viability (NCI-H1755; first compound 0.08 µM): 0.881
- relative viability (NCI-H1755; first compound 0.253 µM): 0.845
- relative viability (NCI-H1755; first compound 0.8 µM): 0.794
- relative viability (NCI-H1755; first compound 2.53 µM): 0.792
- relative viability (NCI-H1755; first compound 8 µM): 0.697
- relative viability (SK-LU-1; first compound 0.08 µM): 0.895
- relative viability (SK-LU-1; first compound 0.253 µM): 0.792
- relative viability (SK-LU-1; first compound 0.8 µM): 0.912
- relative viability (SK-LU-1; first compound 2.53 µM): 0.786
- relative viability (SK-LU-1; first compound 8 µM): 0.769
- relative viability (PC-14; first compound 0.253 µM): 0.84
- relative viability (PC-14; first compound 0.8 µM): 0.943
- relative viability (PC-14; first compound 2.53 µM): 0.934
- relative viability (PC-14; first compound 8 µM): 0.978
- relative viability (H3255; first compound 0.253 µM): 0.801
- relative viability (H3255; first compound 0.8 µM): 0.764
- relative viability (H3255; first compound 2.53 µM): 0.983
- relative viability (H3255; first compound 8 µM): 0.875
- relative viability (HCC-15; first compound 0.08 µM): 0.835
- relative viability (HCC-15; first compound 0.253 µM): 0.771
- relative viability (HCC-15; first compound 0.8 µM): 0.724
- relative viability (HCC-15; first compound 2.53 µM): 0.761
- relative viability (HCC-15; first compound 8 µM): 0.797
- relative viability (NCI-H1437; first compound 0.08 µM): 0.949
- relative viability (NCI-H1437; first compound 0.253 µM): 0.878
- relative viability (NCI-H1437; first compound 0.8 µM): 0.898
- relative viability (NCI-H1437; first compound 2.53 µM): 0.903
- relative viability (NCI-H1437; first compound 8 µM): 0.751
- relative viability (NCI-H1915; first compound 0.08 µM): 0.971
- relative viability (NCI-H1915; first compound 0.253 µM): 0.863
- relative viability (NCI-H1915; first compound 0.8 µM): 0.709
- relative viability (NCI-H1915; first compound 2.53 µM): 0.863
- relative viability (NCI-H1915; first compound 8 µM): 0.784
- relative viability (NCI-H2405; first compound 0.08 µM): 0.831
- relative viability (NCI-H2405; first compound 0.253 µM): 0.814
- relative viability (NCI-H2405; first compound 0.8 µM): 0.83
- relative viability (NCI-H2405; first compound 2.53 µM): 0.819
- relative viability (NCI-H2405; first compound 8 µM): 0.789
- relative viability (NCI-H2023; first compound 0.08 µM): 0.539
- relative viability (NCI-H2023; first compound 0.253 µM): 0.615
- relative viability (NCI-H2023; first compound 0.8 µM): 0.742
- relative viability (NCI-H2023; first compound 2.53 µM): 0.524
- relative viability (NCI-H2023; first compound 8 µM): 0.522
- relative viability (NCI-H460; first compound 0.08 µM): 0.841
- relative viability (NCI-H460; first compound 0.253 µM): 0.671
- relative viability (NCI-H460; first compound 0.8 µM): 0.899
- relative viability (NCI-H460; first compound 2.53 µM): 0.871
- relative viability (NCI-H460; first compound 8 µM): 0.89
- relative viability (UMC-11; first compound 0.08 µM): 0.574
- relative viability (UMC-11; first compound 0.253 µM): 0.618
- relative viability (UMC-11; first compound 0.8 µM): 0.634
- relative viability (UMC-11; first compound 2.53 µM): 0.584
- relative viability (UMC-11; first compound 8 µM): 0.705
- relative viability (NCI-H3122; first compound 0.08 µM): 0.27
- relative viability (NCI-H3122; first compound 0.253 µM): 0.28
- relative viability (NCI-H3122; first compound 0.8 µM): 0.275
- relative viability (NCI-H3122; first compound 2.53 µM): 0.301
- relative viability (NCI-H3122; first compound 8 µM): 0.279
- relative viability (A-427; first compound 0.08 µM): 0.802
- relative viability (A-427; first compound 0.253 µM): 0.839
- relative viability (A-427; first compound 0.8 µM): 0.896
- relative viability (A-427; first compound 2.53 µM): 0.845
- relative viability (A-427; first compound 8 µM): 0.878
- relative viability (LXF-289; first compound 0.08 µM): 0.791
- relative viability (LXF-289; first compound 0.253 µM): 0.775
- relative viability (LXF-289; first compound 0.8 µM): 0.79
- relative viability (LXF-289; first compound 2.53 µM): 0.774
- relative viability (LXF-289; first compound 8 µM): 0.709
- relative viability (HARA; first compound 0.08 µM): 0.991
- relative viability (HARA; first compound 0.253 µM): 1.07
- relative viability (HARA; first compound 0.8 µM): 1.01
- relative viability (HARA; first compound 2.53 µM): 0.927
- relative viability (HARA; first compound 8 µM): 0.961
- relative viability (NCI-H596; first compound 0.08 µM): 0.943
- relative viability (NCI-H596; first compound 0.253 µM): 1.05
- relative viability (NCI-H596; first compound 0.8 µM): 0.928
- relative viability (NCI-H596; first compound 2.53 µM): 0.911
- relative viability (NCI-H596; first compound 8 µM): 0.831
- relative viability (NCI-H2009; first compound 0.08 µM): 1.02
- relative viability (NCI-H2009; first compound 0.253 µM): 0.995
- relative viability (NCI-H2009; first compound 0.8 µM): 1.09
- relative viability (NCI-H2009; first compound 2.53 µM): 1.01
- relative viability (NCI-H2009; first compound 8 µM): 0.889
- relative viability (PC-3 [JPC-3]; first compound 0.253 µM): 0.878
- relative viability (PC-3 [JPC-3]; first compound 0.8 µM): 0.91
- relative viability (PC-3 [JPC-3]; first compound 2.53 µM): 0.915
- relative viability (PC-3 [JPC-3]; first compound 8 µM): 0.854
- relative viability (NCI-H441; first compound 0.08 µM): 0.608
- relative viability (NCI-H441; first compound 0.253 µM): 0.646
- relative viability (NCI-H441; first compound 0.8 µM): 0.652
- relative viability (NCI-H441; first compound 2.53 µM): 0.568
- relative viability (NCI-H441; first compound 8 µM): 0.693
- relative viability (NCI-H650; first compound 0.08 µM): 0.707
- relative viability (NCI-H650; first compound 0.253 µM): 0.711
- relative viability (NCI-H650; first compound 0.8 µM): 0.74
- relative viability (NCI-H650; first compound 2.53 µM): 0.633
- relative viability (NCI-H650; first compound 8 µM): 0.802
- relative viability (NCI-H1975; first compound 0.08 µM): 0.919
- relative viability (NCI-H1975; first compound 0.253 µM): 1.02
- relative viability (NCI-H1975; first compound 0.8 µM): 0.83
- relative viability (NCI-H1975; first compound 2.53 µM): 0.882
- relative viability (NCI-H1975; first compound 8 µM): 0.73
- relative viability (HCC-366; first compound 0.08 µM): 0.574
- relative viability (HCC-366; first compound 0.253 µM): 0.455
- relative viability (HCC-366; first compound 0.8 µM): 0.448
- relative viability (HCC-366; first compound 2.53 µM): 0.503
- relative viability (HCC-366; first compound 8 µM): 0.525
